Results as given in the supplement of paper PMC11781733.
Counter-ions that a name gives are not always drawn.

Assays:
Conditions in all cases: exposure time: 15 min to 3 h acute
Dugesia japonica [1] = assay: pharynx extrusion incidence (% planarians (vehicle-normalised)); higher = higher incidence or increase relative to vehicle control
Method in brief: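 Pharynx extrusion was scored manually and blind as a body-shape category, and its incidence was normalised to in-plate vehicle controls. Individual intact, fasted Dugesia japonica were kept in 200 μL per well of 48-well plates and tested 15 min to 3 h after exposure in water or 0.5% DMSO vehicle. Negatives were set to 0, and worms that crawled out were excluded.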

Dugesia japonica [2] = assay: stickiness incidence (% planarians (vehicle-normalised)); higher = higher incidence or increase relative to vehicle control
Method in brief: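 Worms that crawled out of their wells were excluded from this binary stickiness endpoint, scored in fasted Dugesia japonica planarians and normalised to vehicle incidence on the same plate. Each planarian was kept alone in a sealed 48-well plate well in 200 μL of solution, with 0.5% DMSO or water as vehicle, and tested 15 min–3 h after exposure to half- or quarter-log concentration series. Technical triplicates were pooled (n = 24), negative values became 0, and values were multiplied by 100.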

Dugesia japonica [3] = assay: speed second 30 s blue light vs vehicle (% change vs vehicle); higher = higher incidence or increase relative to vehicle control
Method in brief: (§1)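 Values are median percent changes in crawling speed of intact, fasted Dugesia japonica, measured in the dark or during blue light by automated tracking and normalised per worm to the plate's vehicle median. Single worms in 200 μL per well of 48-well plates were tested 15 min to 3 h after exposure, with 0.5% DMSO or water as vehicle, and worms that crawled out were excluded.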

Dugesia japonica [4] = assay: resting fraction in blue light vs vehicle (difference in fraction x100 vs vehicle); higher = higher incidence or increase relative to vehicle control
Method in brief: (§2)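 Values give the median resting fraction in the dark or under blue light, obtained by automated tracking with the plate's vehicle median subtracted from each worm and the difference multiplied by 100. Intact, fasted Dugesia japonica were placed one per well of a 48-well plate in 200 μL, eight per concentration per plate in technical triplicate. Tracking ran 15 min to 3 h after exposure in 0.5% DMSO or water vehicle, and any worm that crawled out was excluded.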

Dugesia japonica [5] = assay: noxious heat displacement strength vs vehicle (% change vs vehicle); higher = higher incidence or increase relative to vehicle control
Method in brief: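 With automated object tracking, the scrunching assay gave displacement strength under noxious heat for intact, fasted Dugesia japonica, each normalised to its plate's vehicle median and summarised as the median percent change. Worms sat singly in 200 μL in 48-well plates and were tested 15 min to 3 h after exposure in 0.5% DMSO or water vehicle; those that crawled out were excluded.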

Dugesia japonica [6] = assay: any abnormal body shape incidence (% planarians (vehicle-normalised)); higher = higher incidence or increase relative to vehicle control
Method in brief: (§3)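 Values are the incidence of each body shape or of any abnormal shape, ×100, relative to in-plate vehicle controls, and negatives are set to 0. Fasted D. japonica planarians (5–7 days), one per 200 μL well in sealed 48-well plates, were scored blind by hand within 15 minutes–3 hours of exposure to at least 5 concentrations; worms that crawled out were excluded.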

Dugesia japonica [7] = assay: resting fraction in dark vs vehicle (difference in fraction x100 vs vehicle); higher = higher incidence or increase relative to vehicle control
Method in brief: as §2

Dugesia japonica [8] = assay: total locomotor bursts minus vehicle (bursts difference vs vehicle); higher = higher incidence or increase relative to vehicle control
Method in brief: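 The value is the median normalised response for total locomotor bursts, an unstimulated behaviour measured by image-based object tracking in fasted Dugesia japonica planarians. Animals sat singly in the wells of a sealed 48-well plate in 200 μL solution and were tested 15 min–3 h after exposure to half- or quarter-log concentration series in 0.5% DMSO or water. Each planarian's value was corrected by subtracting the plate vehicle-control median, with no ×100 scaling, and crawled-out worms were left out.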

Dugesia japonica [9] = assay: contracted body shape incidence (% planarians (vehicle-normalised)); higher = higher incidence or increase relative to vehicle control
Method in brief: as §3

Dugesia japonica [10] = assay: hyperkinesis incidence (% planarians (vehicle-normalised)); higher = higher incidence or increase relative to vehicle control
Method in brief: as §3

Dugesia japonica [11] = assay: loss of heat-induced scrunching incidence (% planarians (vehicle-normalised)); higher = higher incidence or increase relative to vehicle control
Method in brief: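 The incidence of worms lacking a scrunching response to a noxious heat stimulus, normalised to vehicle controls within each plate, is the value listed. It appears ×100 with negatives set to 0. Single D. japonica planarians in 200 μL per well of 48-well plates were exposed to at least 5 concentrations (n = 24 per concentration) and tested within 15 minutes–3 hours, excluding worms that crawled out.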

Dugesia japonica [12] = assay: corkscrew incidence (% planarians (vehicle-normalised)); higher = higher incidence or increase relative to vehicle control
Method in brief: as §3

Dugesia japonica [13] = assay: speed first 30 s blue light vs vehicle (% change vs vehicle); higher = higher incidence or increase relative to vehicle control
Method in brief: as §1

Dugesia japonica [14] = assay: crawl-out incidence (% planarians); higher = higher incidence or increase relative to vehicle control
Procedure: (§4)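 Adult asexual Dugesia japonica planarians (1 per well, 48-well plate, n=24 over technical triplicates) were exposed acutely (15 min to 3 h) to each compound (0.5% DMSO or water vehicle) and screened on a robotic platform for crawl-out, stickiness, body shape, phototaxis, noxious-heat scrunching and locomotion endpoints. Binary endpoints are incidence rate x100. Continuous endpoints are the median response normalised to the plate vehicle median, as % change or difference. Negative incidences after vehicle subtraction were set to 0.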

Dugesia japonica [15] = assay: anxiety (time in outer well region) vs vehicle (% change vs vehicle); higher = higher incidence or increase relative to vehicle control
Method in brief: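 Time in the outer portion of each well was tracked by software for individual planarians, excluding any that crawled out, and the median normalized response is given. Worms (D. japonica, fasted 5–7 days) sat one per well in 200 μL in sealed 48-well plates, were exposed to at least 5 concentrations with n = 24 per concentration in technical triplicates, and were screened within 15 minutes–3 hours. Normalization divided each response by, or reduced it by, the plate vehicle median and multiplied the result by 100.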

Dugesia japonica [16] = assay: C-shape incidence (% planarians (vehicle-normalised)); higher = higher incidence or increase relative to vehicle control
Method in brief: as §3

Dugesia japonica [17] = assay: speed in dark vs vehicle (% change vs vehicle); higher = higher incidence or increase relative to vehicle control
Procedure: as §4, with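 “x100 normalised to in-plate vehicle controls.” for “x100.”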

Dugesia japonica [18] = assay: loss of phototaxis incidence (% planarians (vehicle-normalised)); higher = higher incidence or increase relative to vehicle control
Method in brief: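 The endpoint was loss of phototaxis, scored yes/no by automated object tracking in intact, fasted Dugesia japonica kept singly in wells. Plates had 48 wells holding 200 μL, and worms were tested 15 min to 3 h after exposure in 0.5% DMSO or water vehicle. The incidence rate ×100 was normalised to in-plate vehicle controls, with negatives set to 0 and escaped worms excluded.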

Dugesia japonica [19] = assay: speed in dark vs vehicle (% change vs vehicle); higher = higher incidence or increase relative to vehicle control; remark: listed apart in the source
Method in brief: as §1

Dugesia japonica [20] = assay: crawl-out incidence (% planarians); higher = higher incidence or increase relative to vehicle control; remark: listed apart in the source

Compound | pharynx extrusion incidence (Dugesia japonica [1]) | stickiness incidence (Dugesia japonica [2]) | speed second 30 s blue light (Dugesia japonica [3]) | resting fraction in blue light (Dugesia japonica [4]) | noxious heat displacement strength (Dugesia japonica [5]) | any abnormal body shape incidence (Dugesia japonica [6]) | resting fraction in dark (Dugesia japonica [7]) | total locomotor bursts minus vehicle (Dugesia japonica [8]) | contracted body shape incidence (Dugesia japonica [9]) | hyperkinesis incidence (Dugesia japonica [10]) | loss of heat-induced scrunching incidence (Dugesia japonica [11]) | corkscrew incidence (Dugesia japonica [12]) | speed first 30 s blue light (Dugesia japonica [13]) | crawl-out incidence (Dugesia japonica [14]) | anxiety (Dugesia japonica [15]) | C-shape incidence (Dugesia japonica [16]) | speed in dark (Dugesia japonica [17]) | loss of phototaxis incidence (Dugesia japonica [18]) | speed in dark (Dugesia japonica [19]) | crawl-out incidence (Dugesia japonica [20])
O=C1CCc2ccc(OCCCCN3CCN(c4cccc(Cl)c4Cl)CC3)cc2N1 [aripiprazole] (1 µM) | 0 | ≤ 0 | 14.3 | -0.33 | 14.8 | 0 | -2.8 | -5.5 | 0 | 0 | ≤ 0 | 0 | 26 | 0 | 1.67 | 0 | 42.8 | 29.2 | – | –
O=C(CCCN1CCC(O)(c2ccc(Br)cc2)CC1)c1ccc(F)cc1 [bromperidol] (1 µM) | 0 | ≤ 0 | -17.1 | 17.6 | -35.1 | 17.4 | 14.6 | 2.5 | 0 | 17.4 | 30.4 | 4.35 | -39.2 | 12.5 | 7.55 | 0 | -18.6 | ≤ 0 | – | –
CC(NC(C)(C)C)C(=O)c1cccc(Cl)c1 (configuration not stated) [bupropion] (10 µM) | 0 | ≤ 0 | 0.8 | 12.6 | -1.43 | 0 | 34.4 | -6 | 0 | 0 | 4.17 | 0 | -36.3 | 0 | 3.29 | 0 | -21.4 | 12.5 | – | –
O=C1CC2(CCCC2)CC(=O)N1CCCCN1CCN(c2ncccn2)CC1 [buspirone] (1 µM) | 0 | ≤ 0 | -19.1 | 4.28 | -21.9 | 12.5 | -6.06 | 0.5 | 0 | 8.33 | ≤ 0 | 0 | -6.54 | 0 | 3.11 | 4.17 | 11.8 | 16.7 | – | –
CN(C)CCCC1(c2ccc(F)cc2)OCc2cc(C#N)ccc21 (configuration not stated) [citalopram hydrobromide] (10 µM) | 0 | 12.5 | -12.8 | 0.82 | -8.3 | 12.5 | 1.41 | 1.75 | 0 | 8.33 | 25 | 0 | 9.22 | 0 | 5.9 | 0 | -7.94 | 16.7 | – | –
CN1CCN(C2=Nc3cc(Cl)ccc3Nc3ccccc32)CC1 [clozapine] (1 µM) | 0 | 4.17 | -79.8 | 36.4 | -43.5 | 8.33 | 55.3 | 38.8 | 4.17 | 8.33 | 4.17 | 0 | -82 | 0 | -1.98 | 0 | -73.5 | 8.33 | – | –
CN1C(=O)CN=C(c2ccccc2)c2cc(Cl)ccc21 [diazepam] (1 µM) | 0 | 4.17 | -4.48 | -0.17 | -18.8 | 0 | -6.08 | -4.5 | 0 | 0 | 12.5 | 0 | 30.1 | 0 | 2.23 | 0 | 23.3 | 8.33 | – | –
O=C(CCCN1CC=C(n2c(=O)[nH]c3ccccc32)CC1)c1ccc(F)cc1 [droperidol] (1 µM) | 0 | ≤ 0 | -69.5 | 9.81 | -54.4 | 16.7 | 3.77 | 11.8 | 0 | 12.5 | 58.3 | 4.17 | -63.6 | 0 | 11.5 | 0 | -60.7 | 16.7 | – | –
CN(C)CCC[C@@]1(c2ccc(F)cc2)OCc2cc(C#N)ccc21 [escitalopram] (10 µM) | 0 | 16.7 | 16 | 0 | -2.51 | 0 | -4.34 | 0.5 | 0 | 0 | 8.33 | 0 | 23.1 | 0 | 1.04 | 0 | 22.6 | ≤ 0 | – | –
CN1CC(=O)N=C1NC(=O)Nc1cccc(Cl)c1 [fenobam] (56.2 µM) | 0 | ≤ 0 | -8.21 | 0 | -21.7 | 0 | -0.17 | -0.5 | 0 | 0 | ≤ 0 | 0 | -6.17 | 0 | 9.05 | 0 | -1.71 | 12.5 | – | –
CNCCC(Oc1ccc(C(F)(F)F)cc1)c1ccccc1 (configuration not stated) [fluoxetine hydrochloride] (1 µM) | 0 | 4.17 | 14.9 | -1.64 | 12 | 0 | -9.67 | -7 | 0 | 0 | 8.33 | 0 | 33.5 | 0 | 6.17 | 0 | 33.6 | ≤ 0 | – | –
O=C(CCCN1CCC(O)(c2ccc(Cl)cc2)CC1)c1ccc(F)cc1 [haloperidol] (1 µM) | 0 | ≤ 0 | -36.1 | 10.1 | -20.5 | 4.35 | 32.1 | 0 | 4.35 | 0 | ≤ 0 | 0 | -26.1 | 4.17 | 1.11 | 0 | -17.7 | 21.7 | – | –
CN(C)CCCN1c2ccccc2CCc2ccccc21 [imipramine] (0.316 µM) | 0 | ≤ 0 | -12.2 | 1.3 | 23.7 | 8.33 | 5.24 | 5.25 | 4.17 | 0 | ≤ 0 | 0 | -17.6 | 0 | -0.7 | 0 | -16.2 | 4.17 | – | –
CCCCNc1c(C(=O)OCC)c(C)nc2c1cnn2CC [tracazolate hydrochloride] (100 µM) | 8.33 | ≤ 0 | -91.7 | 59 | -63.6 | 91.7 | 61.7 | 81.5 | 4.17 | 70.8 | 29.2 | 12.5 | -91.5 | – | -79.8 | 87.5 | – | 12.5 | -83.4 | 0
